Assay results reported in patent US20250353873A1, “COMPOUNDS AND METHODS FOR MODULATING APOE EXPRESSION” (Ionis Pharmaceuticals, Inc., priority 2024, published 2025).
Strand notation (5' to 3'): a small letter for the sugar, then the base; units joined by * are phosphorothioate-linked, units joined directly phosphodiester-linked; [ ] holds rarer units or linkages, { } end groups; capitals alone tell only the bases. [ms] = mesyl phosphoramidate linkage; e = 2'-O-(2-methoxyethyl) (MOE); k = constrained ethyl (cEt); [5mC] = 5-methylcytosine; d = 2'-deoxy (DNA)

Assays:
[1] = system: human APOE RNA; experiment: Activity in APOE C57BL/6NTac-Apoeem7250 knock-in mice, single ICV bolus, 20 weeks (Example 13); assay type: in vivo; conditions: single ICV bolus 300 μg, 20 weeks post treatment, normalized to mouse Ppia
In short: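 Cortical and spinal cord RNA was assayed by real-time RT-PCR for human APOE, normalized to mouse Ppia and reported as percent of PBS controls. Tissue was taken twenty weeks after one 300 μg intracerebroventricular bolus in APOE knock-in mice, 4 per group.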

[2] = system: human APOE RNA; experiment: Dose-dependent inhibition of human APOE RNA in HepG2 cells, electroporation, 50,000 cells per well, RT-PCR normalized to GAPDH (Example 4, Tables 8-10); assay type: cell-based; conditions: HepG2, electroporation, 16-hour treatment
In short: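 Readout is percent APOE RNA versus untreated controls, measured by RT-PCR (primer probe set RTS3073) and normalized to human GAPDH. Modified oligonucleotides were delivered by electroporation at varying doses into HepG2 cells plated at 50,000 per well.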

[3] = system: human APOE RNA; experiment: Activity in APOE C57BL/6NTac-Apoeem7250 knock-in mice, single ICV bolus, 4 weeks (Example 10); assay type: in vivo; conditions: single ICV bolus 300 μg, 4 weeks post treatment, normalized to mouse Ppia
In short: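 Human APOE RNA, quantified by real-time RT-PCR with RTS3073 and normalized to mouse Ppia, was read in cortical brain and spinal cord 4 weeks post dosing. Dosing was a single ICV bolus of 300 μg per knock-in mouse; values are % of PBS-treated animals.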

[4] = system: human APOE RNA; experiment: Activity in APOE C57BL/6NTac-Apoeem7250 knock-in mice, single ICV bolus, 16 weeks (Example 12); assay type: in vivo; conditions: single ICV bolus 300 μg, 16 weeks post treatment, normalized to mouse Ppia
In short: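 A single 300 μg intracerebroventricular dose was given, with PBS-treated mice as reference; cortical and spinal cord tissue was taken 16 weeks later. RT-qPCR quantified human APOE RNA, Ppia-normalized, expressed relative to PBS animals (% control).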

[5] = system: human APOE RNA; experiment: Activity in APOE C57BL/6NTac-Apoeem7250 knock-in mice, single ICV bolus, 8 weeks (Example 11); assay type: in vivo; conditions: single ICV bolus 300 μg, 8 weeks post treatment, normalized to mouse Ppia
In short: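 Cortical and spinal cord human APOE RNA quantified by RT-qPCR 8 weeks after a single 300 μg ICV dose in knock-in mice, Ppia-normalized. Values are percent of levels in PBS-treated animals.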

1766559 (eT*eTeGeGeT*dG[ms]dA[ms]dA[ms]dT*d[5mC]*dT*dT*dT[ms]dA[ms]dT*kTkAeA*eA*e[5mC]; antisense) [Compound 1766559]
APOE RNA (% control) Cortex [1]: 100 % control
APOE RNA (% control) Spinal Cord [1]: 74 % control
APOE RNA (% UTC) ([2]; 5 nM): 166 % UTC
APOE RNA (% UTC) ([2]; 33 nM): 65 % UTC
APOE RNA (% UTC) ([2]; 82 nM): 47 % UTC
APOE RNA (% UTC) ([2]; 205 nM): 46 % UTC
APOE RNA (% UTC) ([2]; 512 nM): 41 % UTC
APOE RNA (% UTC) ([2]; 1,280 nM): 30 % UTC
APOE RNA (% UTC) ([2]; 3,200 nM): 21 % UTC
APOE RNA (% UTC) ([2]; 8,000 nM): 35 % UTC
APOE RNA (% UTC) ([2]; 20,000 nM): 36 % UTC
IC50 [2]: 340 nM
APOE RNA (% control) Cortex [3]: 79 % control
APOE RNA (% control) Spinal Cord [3]: 81 % control

1785619 (k[5mC]*dT[ms]dT[ms]kG*dG[ms]kT*dG*dA[ms]dA[ms]dT*d[5mC]*dT*dT*dT*dA[ms]dT*kT*kA*dA[ms]kA) [Compound 1785619]
APOE RNA (% control) Cortex [1]: 58 % control
APOE RNA (% control) Spinal Cord [1]: 59 % control
APOE RNA (% control) Cortex [4]: 40 % control
APOE RNA (% control) Spinal Cord [4]: 41 % control
APOE RNA (% control) Cortex [3]: 41 % control
APOE RNA (% control) Spinal Cord [3]: 41 % control
APOE RNA (% control) Cortex [5]: 40 % control
APOE RNA (% control) Spinal Cord [5]: 27 % control

1778126 (eA*e[5mC]eTeTkG*kG*dT*dG[ms]dA[ms]dA*dT*d[5mC]*dT*dT*dT*dA[ms]kT*eT*eA*eA; antisense) [Compound 1778126]
APOE RNA (% control) Cortex [1]: 52 % control
APOE RNA (% control) Spinal Cord [1]: 35 % control
APOE RNA (% control) Cortex [4]: 37 % control
APOE RNA (% control) Spinal Cord [4]: 22 % control
APOE RNA (% control) Cortex [3]: 41 % control
APOE RNA (% control) Spinal Cord [3]: 72 % control
APOE RNA (% control) Cortex [5]: 23 % control
APOE RNA (% control) Spinal Cord [5]: 20 % control

1778113 (eA*e[5mC]eTeTkG*kG*dT*dG[ms]dA[ms]dA*dT*d[5mC]*dT*dT*dT*dA[ms]eT*eT*eA*eA; antisense) [Compound 1778113]
APOE RNA (% control) Cortex [1]: 61 % control
APOE RNA (% control) Spinal Cord [1]: 24 % control
APOE RNA (% control) Cortex [4]: 46 % control
APOE RNA (% control) Spinal Cord [4]: 27 % control
APOE RNA (% control) Cortex [3]: 48 % control
APOE RNA (% control) Spinal Cord [3]: 88 % control
APOE RNA (% control) Cortex [5]: 53 % control
APOE RNA (% control) Spinal Cord [5]: 28 % control

1779706 (e[5mC]*eTeTkGkG*dT[ms]dG[ms]dA[ms]dA*dT*d[5mC]*dT*dT*dT*dA*dT*eT*eA*eA*eA; antisense) [Compound 1779706]
APOE RNA (% control) Cortex [1]: 46 % control
APOE RNA (% control) Spinal Cord [1]: 36 % control
APOE RNA (% control) Cortex [3]: 35 % control
APOE RNA (% control) Spinal Cord [3]: 53 % control

1778112 (eA*e[5mC]eTeTeGkG*dT*dG[ms]dA[ms]dA*dT*d[5mC]*dT*dT*dT*dA[ms]eTeT*eA*eA; antisense) [Compound 1778112]
APOE RNA (% control) Cortex [1]: 67 % control
APOE RNA (% control) Spinal Cord [1]: 25 % control
APOE RNA (% control) Cortex [4]: 63 % control
APOE RNA (% control) Spinal Cord [4]: 25 % control
APOE RNA (% control) Cortex [3]: 46 % control
APOE RNA (% control) Spinal Cord [3]: 49 % control
APOE RNA (% control) Cortex [5]: 49 % control
APOE RNA (% control) Spinal Cord [5]: 23 % control

1785591 (k[5mC]*kT*kT*dG[ms]dG[ms]dT[ms]dG*dA*dA*dT*d[5mC]*dT[ms]dT[ms]dT*dA*dT*kT*kA*dA[ms]kA; antisense) [Compound 1785591]
APOE RNA (% control) Cortex [1]: 51 % control
APOE RNA (% control) Spinal Cord [1]: 42 % control
APOE RNA (% control) Cortex [3]: 37 % control
APOE RNA (% control) Spinal Cord [3]: 39 % control

1778107: 6-10-4 MOE gapmer ACTTGGTGAATCTTTATTAA, linkages sooossszzsssssszsss (eA*e[5mC]eTeTeG*eG*dT*dG[ms]dA[ms]dA*dT*d[5mC]*dT*dT*dT*dA[ms]eT*eT*eA*eA) [compound 1778107]
APOE RNA (% control) Cortex [1]: 76 % control
APOE RNA (% control) Spinal Cord [1]: 32 % control
APOE RNA (% control) Cortex [3]: 70 % control
APOE RNA (% control) Spinal Cord [3]: 70 % control

1757572 (eA*e[5mC]eTeT*kG*kG*dT*dG[ms]dA[ms]dA[ms]dT*d[5mC]*dT*dT*dT*dA[ms]eT*eT*eA*eA; antisense) [Compound 1757572]
APOE RNA (% control) Cortex [1]: 51 % control
APOE RNA (% control) Spinal Cord [1]: 69 % control
APOE RNA (% UTC) ([2]; 5 nM): 114 % UTC
APOE RNA (% UTC) ([2]; 13 nM): 95 % UTC
APOE RNA (% UTC) ([2]; 33 nM): 107 % UTC
APOE RNA (% UTC) ([2]; 82 nM): 96 % UTC
APOE RNA (% UTC) ([2]; 205 nM): 83 % UTC
APOE RNA (% UTC) ([2]; 512 nM): 67 % UTC
APOE RNA (% UTC) ([2]; 1,280 nM): 66 % UTC
APOE RNA (% UTC) ([2]; 3,200 nM): 51 % UTC
APOE RNA (% UTC) ([2]; 8,000 nM): 26 % UTC
APOE RNA (% UTC) ([2]; 20,000 nM): 10 % UTC
IC50 [2]: 2350 nM
APOE RNA (% control) Cortex [3]: 50 % control
APOE RNA (% control) Spinal Cord [3]: 38 % control

1785616 (k[5mC]*dT[ms]dT[ms]kG*dG[ms]kT*dG[ms]dA[ms]dA[ms]dT*d[5mC]*dT*dT*dT*dA*dT[ms]kT*kA*dA[ms]kA; antisense) [Compound 1785616]
APOE RNA (% control) Cortex [1]: 77 % control
APOE RNA (% control) Spinal Cord [1]: 57 % control
APOE RNA (% control) Cortex [4]: 47 % control
APOE RNA (% control) Spinal Cord [4]: 34 % control
APOE RNA (% control) Cortex [3]: 47 % control
APOE RNA (% control) Spinal Cord [3]: 66 % control
APOE RNA (% control) Cortex [5]: 47 % control
APOE RNA (% control) Spinal Cord [5]: 27 % control

1778122 (eA*e[5mC]eTeTeG*eG*dT*dG[ms]dA[ms]dA*dT*d[5mC]*dT*dT*dT*dA[ms]kT*kT*eA*eA; antisense) [Compound 1778122]
APOE RNA (% control) Cortex [1]: 76 % control
APOE RNA (% control) Spinal Cord [1]: 34 % control
APOE RNA (% control) Cortex [3]: 53 % control
APOE RNA (% control) Spinal Cord [3]: 62 % control

1778117 (eA*e[5mC]eTeTeG*eG*dT*dG[ms]dA[ms]dA*dT*d[5mC]*dT*dT*dT*dA[ms]kT*eT*eA*eA; antisense) [Compound 1778117]
APOE RNA (% control) Cortex [1]: 72 % control
APOE RNA (% control) Spinal Cord [1]: 36 % control
APOE RNA (% control) Cortex [4]: 65 % control
APOE RNA (% control) Spinal Cord [4]: 36 % control
APOE RNA (% control) Cortex [3]: 46 % control
APOE RNA (% control) Spinal Cord [3]: 114 % control
APOE RNA (% control) Cortex [5]: 49 % control
APOE RNA (% control) Spinal Cord [5]: 28 % control

1785600 (k[5mC]*kT*kT*dG[ms]dG[ms]dT[ms]dG*dA*dA*dT*d[5mC]*dT[ms]dT[ms]dT[ms]dA*dT*kT*kA*dA[ms]kA; antisense) [Compound 1785600]
APOE RNA (% control) Cortex [1]: 60 % control
APOE RNA (% control) Spinal Cord [1]: 33 % control
APOE RNA (% control) Cortex [4]: 39 % control
APOE RNA (% control) Spinal Cord [4]: 30 % control
APOE RNA (% control) Cortex [3]: 46 % control
APOE RNA (% control) Spinal Cord [3]: 51 % control
APOE RNA (% control) Cortex [5]: 36 % control
APOE RNA (% control) Spinal Cord [5]: 26 % control

1778119 (eA*e[5mC]eTeTeG*eG*dT*dG[ms]dA[ms]dA*dT*d[5mC]*dT*dT*dT*dA[ms]kTeT*eA*eA; antisense) [Compound 1778119]
APOE RNA (% control) Cortex [1]: 84 % control
APOE RNA (% control) Spinal Cord [1]: 51 % control
APOE RNA (% control) Cortex [4]: 62 % control
APOE RNA (% control) Spinal Cord [4]: 38 % control
APOE RNA (% control) Cortex [3]: 45 % control
APOE RNA (% control) Spinal Cord [3]: 56 % control
APOE RNA (% control) Cortex [5]: 52 % control
APOE RNA (% control) Spinal Cord [5]: 27 % control

1778109: 6-10-4 MOE gapmer ACTTGGTGAATCTTTATTAA, linkages sooossszzsssssszoss (eA*e[5mC]eTeTeG*eG*dT*dG[ms]dA[ms]dA*dT*d[5mC]*dT*dT*dT*dA[ms]eTeT*eA*eA) [compound 1778109]
APOE RNA (% control) Cortex [1]: 81 % control
APOE RNA (% control) Spinal Cord [1]: 34 % control
APOE RNA (% control) Cortex [3]: 59 % control
APOE RNA (% control) Spinal Cord [3]: 61 % control

1785589 (k[5mC]*kT*kT*dG[ms]dG[ms]dT[ms]dG*dA*dA*dT[ms]d[5mC][ms]dT*dT*dT*dA*dT*kT*kA*dA[ms]kA; antisense) [Compound 1785589]
APOE RNA (% control) Cortex [1]: 49 % control
APOE RNA (% control) Spinal Cord [1]: 30 % control
APOE RNA (% control) Cortex [3]: 32 % control
APOE RNA (% control) Spinal Cord [3]: 40 % control
